Article PMC6272230, “Uses of 3-(2-Bromoacetyl)-2H-chromen-2-one in the Synthesis of Heterocyclic Compounds Incorporating Coumarin: Synthesis, Characterization and Cytotoxicity” (Molecules, 2015)
Like-named read-outs stand apart in the source and are kept apart here.

How the values were obtained:
[1] = system: human liver cancer (HEPG2); experiment: In vitro cytotoxicity against HEPG2 cells; assay type: cell-based
Procedure: (§1) The heterocyclic compounds, prepared in this study, were evaluated according to standard protocols for their in vitro cytotoxicity against six human cancer cell lines including cells derived from human gastric cancer (NUGC), human colon cancer (DLD1), human liver cancer (HA22T and HEPG2), nasopharyngeal carcinoma (HONE1), human breast cancer (MCF) and normal fibroblast cells (WI38). For comparison purposes, CHS 828, a pyridyl cyanoguanidine, was used as a standard antitumor drug (Figure 2). […] All the synthesized compounds were tested for their cytotoxicity against normal fibroblast cells.
(§2) Fetal bovine serum (FBS) and L-glutamine, were purchased from Gibco Invitrogen Co. (Scotland, UK). RPMI-1640 medium was purchased from Cambrex (East Rutherford, NJ, USA). Dimethyl sulfoxide (DMSO), CHS 828, penicillin, streptomycin and sulforhodamine B (SRB) were purchased from Sigma Chemical Co. (Saint Louis, MO, USA).
(§3) Cell cultures were obtained from the European Collection of Cell Cultures (ECACC, Salisbury, UK) and human gastric cancer (NUGC), human colon cancer (DLD1), human liver cancer (HA22T and HEPG2), human breast cancer (MCF), nasopharyngeal carcinoma (HONE1) and normal fibroblast cells (WI38) were kindly provided by the National Cancer Institute (NCI, Cairo, Egypt). They were grown as a monolayer and routinely maintained in RPMI-1640 medium supplemented with 5% heat inactivated FBS, 2 mM glutamine and antibiotics (penicillin 100 U/mL, streptomycin 100 µg/mL) at 37 °C in a humidified atmosphere containing 5% CO2. Exponentially growing cells were obtained by plating 1.5 × 10^5 cells/mL for the six human cancer cell lines followed by 24 h of incubation. The effect of the vehicle solvent (DMSO) on the growth of these cell lines was evaluated in all the experiments by exposing untreated control cells to the maximum concentration (0.5%) of DMSO used in each assay.

[2] = In vitro cytotoxicity against normal fibroblast cells WI38; assay type: cell-based; conditions: human, concentration producing 50% reduction in cell growth
Procedure: as §1, §2, §3

[3] = system: nasopharyngeal carcinoma (HONE1); experiment: In vitro cytotoxicity against HONE1 cells; assay type: cell-based; conditions: Homo sapiens
Procedure: as §1, §2, §3

[4] = system: human breast cancer (MCF); experiment: In vitro cytotoxicity against MCF cells; assay type: cell-based; conditions: read-out: Cytotoxicity (IC50 in nM) MCF
Procedure: as §1, §2, §3

[5] = system: human gastric cancer (NUGC); experiment: In vitro cytotoxicity against NUGC cells; assay type: cell-based; conditions: read-out: Cytotoxicity (IC50 in nM) NUGC
Procedure: as §1, §2, §3

[6] = system: human liver cancer (HA22T); experiment: In vitro cytotoxicity against HA22T cells; assay type: cell-based; conditions: read-out: Cytotoxicity (IC50 in nM) HA22T
Procedure: as §1, §2, §3

[7] = system: human colon cancer (DLD1); experiment: In vitro cytotoxicity against DLD1 cells; assay type: cell-based
Procedure: as §1, §2, §3

[8] = HEPG2, liver cancer, concentration producing 50% reduction in cell growth, read-out: Cytotoxicity (IC50 in nM) HEPG2
[9] = HONE1, nasopharyngeal carcinoma, concentration producing 50% reduction in cell growth, read-out: Cytotoxicity (IC50 in nM) HONE1
[10] = MCF, breast cancer, concentration producing 50% reduction in cell growth
[11] = gastric cancer, concentration producing 50% reduction in cell growth
[12] = liver cancer, concentration producing 50% reduction in cell growth
[13] = DLD-1, DLDI, colon cancer, concentration producing 50% reduction in cell growth, read-out: Cytotoxicity (IC50 in nM) DLDI

| SMILES | melting point [°C] | IC50 [1, 8] [nM] | IC50 [2] [nM] | IC50 [3, 9] [nM] | IC50 [4, 10] [nM] | IC50 [5, 11] [nM] | IC50 [6, 12] [nM] | IC50 [7, 13] [nM] | IC50 ([1]; HepG2, read-out: Cytotoxicity (IC50 in nM) HEPG2) [nM] | IC50 ([3]; HONE1, read-out: Cytotoxicity (IC50 in nM) HONE1) [nM] | IC50 [4] [nM] | IC50 [5] [nM] | IC50 [6] [nM] | IC50 ([7]; DLD-1, read-out: Cytotoxicity (IC50 in nM) DLDI) [nM] |
| --- | --- | --- | --- | --- | --- | --- | --- | --- | --- | --- | --- | --- | --- | --- |
| O=c1oc2ccccc2cc1-c1cn(-c2ccc(Cl)cc2)c(=Nc2ccccc2)s1 [Compound 5d, 3-(3-(4-Chlorophenyl)-2-(phenylimino)-2,3-dihydrothiazol-5-yl)-2H-chromen-2-one] | 123 to 125 | 3740 | 860 | 441 | 1260 | 38 | 120 | 163 |  |  |  |  |  |  |
| CCOC(=O)c1c(N)sc(Br)c1-c1cc2ccccc2oc1=O [Compound 4b, Ethyl 2-amino-5-bromo-4-(2-oxo-2H-chromen-3-yl)thiophene-3-carboxylate] | 177 to 179 | 2020 |  | 1210 | 1140 | 84 | 219 | 167 |  |  |  |  |  |  |
| O=c1oc2ccccc2cc1-c1cn(-c2ccccc2)c(=Nc2ccccc2)s1 [Compound 5a, 3-(3-Phenyl-2-(phenylimino)-2,3-dihydrothiazol-5-yl)-2H-chromen-2-one] | 158 to 160 | 1110 | 632 | 2050 | 2010 | 228 | 213 | 569 |  |  |  |  |  |  |
| N#CN=C(NCCCCCCOc1ccc(Cl)cc1)Nc1ccncc1 [CHS 828, reference compound] |  |  |  |  |  |  |  |  | 1240 | 15 | 18 | 25 | 2070 | 2320 |
| O=C(C(Br)=NNc1ccccc1)c1cc2ccccc2oc1=O [Compound 2, 2-oxo-2-(2-oxo-2H-chromen-3-yl)-N'-phenylacetohydrazonoylbromide] | 88 to 90 | 174 |  | 1480 | 288 | 48 | 1120 | 60 |  |  |  |  |  |  |
| N#CC1=C(N)OC(c2cc3ccccc3oc2=O)=C(Br)C1c1ccc(Cl)cc1 (centres unmarked) [Compound 6c, 2-Amino-5-bromo-4-(4-chlorophenyl)-6-(2-oxo-2H-chromen-3-yl)-4H-pyran-3-carbonitrile] | 178 to 180 | 683 | 480 | 1670 | 89 | 38 | 2270 | 283 |  |  |  |  |  |  |
| N#Cc1c(N)sc(Br)c1-c1cc2ccccc2oc1=O [Compound 4a, 2-Amino-5-bromo-4-(2-oxo-2H-chromen-3-yl)thiophene-3-carbonitrile] | 180 to 182 | 221 | 780 | 228 | 2060 | 32 | 27 | 50 |  |  |  |  |  |  |
| COc1ccc(C2C(Br)=C(c3cc4ccccc4oc3=O)NC(N)=C2C#N)cc1 (centres unmarked) [Compound 7b, 2-Amino-5-bromo-4-(4-methoxyphenyl)-6-(2-oxo-2H-chromen-3-yl)-1,4-dihydropyridine-3-carbonitrile] | 164 to 166 | 738 | 160 | 180 | 409 | 782 | 783 | 532 |  |  |  |  |  |  |
| N#CC1=C(N)OC(c2cc3ccccc3oc2=O)=C(Br)C1c1ccco1 (centres unmarked) [Compound 6d, 2-Amino-5-bromo-4-(furan-2-yl)-6-(2-oxo-2H-chromen-3-yl)-4H-pyran-3-carbonitrile] | 148 to 150 | 360 |  | 279 | 931 | 29 | 2110 | 98 |  |  |  |  |  |  |
| Nc1cc(-c2cc3ccccc3oc2=O)n[nH]1 [Compound 9a, 3-(5-Amino-1H-pyrazol-3-yl)-2H-chromen-2-one] | 218 to 220 | 359 |  | 442 | 1290 | 3470 | 2170 | 48 |  |  |  |  |  |  |
| Nc1cc(-c2cc3ccccc3oc2=O)nn1-c1ccccc1 [Compound 9b, 3-(5-Amino-1-phenyl-1H-pyrazol-3-yl)-2H-chromen-2-one] | 158 to 160 | 415 |  | 4270 | 1650 | 1120 | 1580 | 2240 |  |  |  |  |  |  |
| N#CC1=C(N)OC(c2cc3ccccc3oc2=O)=C(Br)C1c1ccccc1 (centres unmarked) [Compound 6a, 2-Amino-5-bromo-6-(2-oxo-2H-chromen-3-yl)-4-phenyl-4H-pyran-3-carbonitrile] | 140 to 142 | 59 |  | 1180 | 2180 | 1090 | 1240 | 303 |  |  |  |  |  |  |
| N#CC1=C(N)NC(c2cc3ccccc3oc2=O)=C(Br)C1c1ccco1 (centres unmarked) [Compound 7d, 2-Amino-5-bromo-4-(furan-2-yl)-6-(2-oxo-2H-chromen-3-yl)-1,4-dihydropyridine-3-carbonitrile] | 205 to 207 | 2730 |  | 1190 | 1130 | 682 | 52 | 163 |  |  |  |  |  |  |
| N#CC1=C(N)NC(c2cc3ccccc3oc2=O)=C(Br)C1c1ccc(Cl)cc1 (centres unmarked) [Compound 7c, 2-Amino-5-bromo-4-(4-chlorophenyl)-6-(2-oxo-2H-chromen-3-yl)-1,4-dihydropyridine-3-carbonitrile] | 206 to 208 | 416 |  | 221 | 43 | 98 | 128 | 32 |  |  |  |  |  |  |

The next lines start with results.

| melting point [°C] | SMILES | IC50 [1, 8] [nM] | IC50 [2] [nM] | IC50 [3, 9] [nM] | IC50 [4, 10] [nM] | IC50 [5, 11] [nM] | IC50 [6, 12] [nM] | IC50 [7, 13] [nM] | IC50 ([1]; HepG2, read-out: Cytotoxicity (IC50 in nM) HEPG2) [nM] | IC50 ([3]; HONE1, read-out: Cytotoxicity (IC50 in nM) HONE1) [nM] | IC50 [4] [nM] | IC50 [5] [nM] | IC50 [6] [nM] | IC50 ([7]; DLD-1, read-out: Cytotoxicity (IC50 in nM) DLDI) [nM] |
| --- | --- | --- | --- | --- | --- | --- | --- | --- | --- | --- | --- | --- | --- | --- |
| 113 to 115 | COc1ccc(C2C(C#N)=C(N)OC(c3cc4ccccc4oc3=O)=C2C#N)cc1 (centres unmarked) [Compound 10b, 2-Amino-4-(4-methoxyphenyl)-6-(2-oxo-2H-chromen-3-yl)-4H-pyran-3,5-dicarbonitrile] | 1320 |  | 2180 | 2120 | 1340 | 89 | 2280 |  |  |  |  |  |  |
| 99 to 101 | COc1ccc(C2C(C#N)=C(N)NC(c3cc4ccccc4oc3=O)=C2C#N)cc1 (centres unmarked) [Compound 11b, 2-Amino-4-(4-methoxyphenyl)-6-(2-oxo-2H-chromen-3-yl)-1,4-dihydropyridine-3,5-dicarbonitrile] | 215 |  | 1670 | 39 | 124 | 3060 | 58 |  |  |  |  |  |  |
| 133 to 135 | N#CC1=C(N)OC(c2cc3ccccc3oc2=O)=C(C#N)C1c1ccco1 (centres unmarked) [Compound 10d, 2-Amino-4-(furan-2-yl)-6-(2-oxo-2H-chromen-3-yl)-4H-pyran-3,5-dicarbonitrile] | 3320 |  | 220 | 2250 | 47 | 102 | 68 |  |  |  |  |  |  |
| 178 to 180 | N#CC1=C(N)OC(c2cc3ccccc3oc2=O)=C(C#N)C1c1ccc(Cl)cc1 (centres unmarked) [Compound 10c, 2-Amino-4-(4-chlorophenyl)-6-(2-oxo-2H-chromen-3-yl)-4H-pyran-3,5-dicarbonitrile] | 399 |  | 89 | 584 | 312 | 4170 | 193 |  |  |  |  |  |  |
| 197 to 199 | N#CC1=C(N)NC(c2cc3ccccc3oc2=O)=C(C#N)C1c1ccc(Cl)cc1 (centres unmarked) [Compound 11c, 2-Amino-4-(4-chlorophenyl)-6-(2-oxo-2H-chromen-3-yl)-1,4-dihydropyridine-3,5-dicarbonitrile] | 424 |  | 1770 | 839 | 1280 | 2060 | 483 |  |  |  |  |  |  |
